Data published in EP4385508A1, “FURAN FATTY ACIDS FOR ENHANCING MUSCLE MASS” (Centre de Coopération Internationale en Recherche …, priority 2022, dated 2024).

Assays:
[1] = system: Akt (Ser473); experiment: Akt phosphorylation by Western blot in C2C12 myotubes; format: cell-based, Mouse; details: FuFA-F2 together with insulin; 3-day pretreatment, 2 hours low-glucose, 30 minutes
Description: (§1) Mouse myoblasts of the C2C12 cell line (ATCC) were seeded at a plating density of 7000 cells/cm2 in 6-well plates. They were grown in DMEM high glucose (4.5g/l) supplemented with gentamycin (50 µg/mL), amphotericin (50 µg/mL), and fetal calf serum (10%). Terminal differentiation was induced at cell confluence by lowering the medium serum concentration (0.5%).
(§2) When indicated, FuFA-F2 was added to the culture medium at the indicated concentration. For the differentiation studies, FuFA-F2 was added at the confluence at the same time as the change in media condition. Three doses of FuFA-F2 were studied at a final concentration of 1, 10, or 50 µM. Human insulin was used at a concentration of 100 nM.
Protein levels were assessed by Western blotting. Total proteins were measured using the Bio-Rad protein assay (Hercules, CA, USA) according to the manufacturer's instructions. Total proteins were lysed in RIPA buffer (20mM Tris, 150mM NaCl, 1mM EDTA, 1% NP40, pH 7.5 + complete cocktail protease inhibitors + Pierce phosphatase inhibitors tablet). 40 µg of cell extracts were loaded and blotted onto a nitrocellulose membrane. The membranes were washed, blocked with 5% nonfat milk and incubated in primary antibody overnight at 4°C. […]

[2] = system: complex IV (cytochrome c oxidase); experiment: Complex IV activity of C2C12 myotubes; format: cell-based; details: Mus musculus, C2C12, 72 h, 3 days, change vs control, trend p<0.07
Description: as §1, §2
Mitochondrial respiratory complex activities were determined as previously described (Casas et al., 2008, PloS ONE, Vol. 3(6) : e2501). Citrate synthase (CS) activity was measured according to Srere (Srere et al., 1967, Science, Vol. 158(3803) : 936-937) by following the color formation of 5-thio-2-nitrobenzoic acid at 412 nm. The enzymatic activity of complex IV (cytochrome c oxidase) was measured according to Wharton and Tzagoloff (Wharton et al., 1967, Methods in Enzymology, Vol. 10, Edn Elsevier BV, Amsterdam, The Netherlands), a spectrophotometer following the oxidation of reduced cytochrome c at 550 nm, pH 7.4, and 37 °C. Cytochrome c was reduced with sodium dithionite. […]

[3] = system: C57Bl6 mice; experiment: Oral gavage supplementation in C57Bl6 mice: food intake, body weight, body composition (EchoMRI), muscle weight; format: in vivo; details: 3 and a half weeks
Description: Male C57Bl/6J wild-type mice were obtained from Janvier at 12 weeks of age and were randomly assigned to one of the two groups based on body weight. Mice were housed 2 per cage and maintained on a 12-hour light/dark cycle (lights on at 7:30 pm). Food and water were provided ad libitum. Enrichment (nesting cotton squares) was provided in each cage. Mice were treated once daily by oral gavage with vehicle (50% PEG-400, 0.5% Tween 80, and 49.5% distilled water) or FuFA-F2 (20 mg/kg). All animal experiments were performed according to European directives (86/609/CEE and 2010/63/CEE) and approved by the regional animal experimentation ethics committe: Région Languedoc-Roussillon (No36). Our institutional guidelines for the care and use of laboratory animals were observed. Our animal facility is approved by the Departmental Veterinary Services (No. E34-172-10, 2019/03/04) and the Ministry of Research (DUO No. 7053, 2020/02/26). according to the European Directive 210-63-EU, mice were observed daily for the general health status and mortality scoring.
To investigate in vivo the potential impact a furan-containing compound under the form of a triacylgycerol of FuFA-F2 on muscle characteristics, C57Bl6 mice were supplemented by oral gavage with vehicle or FuFA-F2 (20mg/kg) for 3 and a half weeks (Fig. 6A). […] However, fat mass was similar between the two groups (Fig. 6E).

[4] = 20mg/kg oral gavage once daily, triacylglycerol of FuFA-F2, vs vehicle
[5] = 20mg/kg oral gavage, vs vehicle

Q: With `CCCCCc1cc(C)c(CCCCCCCCC(=O)O)o1` [FuFA-F2] as the compound, how does the “insulin-induced phosphorylation of Akt” value [1] read?
A: The value was “did not alter”.

Q: And the activation at 10 µM [2]?
A: The activation at 10 µM was 60%.

Q: What about the body weight [3, 4] of the same compound?
A: The body weight was “significantly higher”.

Q: And the food intake [3, 4]?
A: Its food intake is “ate more”.

Q: And the “weight of the gastrocnemius” value [3, 5]?
A: Its value is “significantly increased”.

Q: And the “weight of the quadriceps” value [3, 5]?
A: The value was “significantly increased”.

Q: What about the fat mass ([3]; EchoMRI, 20mg/kg oral gavage, between the two groups) of the same compound?
A: The fat mass was “similar”.

Q: And the lean mass ([3]; EchoMRI, 20mg/kg oral gavage, vs control mice)?
A: The lean mass was “greater”.
